The values below come from patent US9498483B2, “2,3,5-trisubstituted thiophene compounds and uses thereof” (priority 2010, dated 2016).

The test system of experiment [1] is HCV replicon I389luc-ubi-neo/NS3-3′/ET in ET (Huh-lucubineo-ET) cells. Briefly: Replicon assay (Biological Example 2), luciferase readout. Format: cell-based. Particulars: Hepatitis C virus. The protocol:
A cell line, ET (Huh-lucubineo-ET) was used for screening of compounds for inhibiting HCV RNA dependent RNA polymerase. The ET cell line was stably transfected with RNA transcripts harboring a I389luc-ubi-neo/NS3-3′/ET; replicon with firefly luciferase-ubiquitin-neomycin phosphotransferase fusion protein and EMCV-IRES driven NS3-5B polyprotein containing the cell culture adaptive mutations (E1202G; T12801; K1846T) (Krieger at al, 2001 and unpublished). The ET cells were grown in DMEM (Dulbeco's Modified Eagle's Medium), supplemented with 10% fetal calf serum, 2 mM Glutamine, Penicillin (100 IU/mL)/Streptomycin (100 μg/mL), 1× nonessential amino acids, and 250 μg/mL G418 (“Geneticin”). Reagents were all available through Life Technologies (Bethesda, Md.). The cells were plated at 0.5-1.0×10^4 cells/well in the 96 well plates and incubated for 24 hrs before adding test compound. The compounds were added to the cells to achieve a final concentration of 0.1 nM to 50 μM and a final DMSO (dimethylsulfoxide) concentration of 0.5%. Luciferase activity was measured 48 hours later by adding a lysis buffer and the substrate (Catalog number Glo-lysis buffer E2661 and Bright-Glo luciferase system E2620 Promega, Madison, Wis.). Cells should not be too confluent during the assay. Percent inhibition of replication data was plotted relative to no compound control. To determine the EC50 (effective concentration at which 50% of the maximum inhibition was observed), a 10 point, 3-fold serial dilution for each compound was used, which spans a concentration range of […]. EC50 values were calculated by fitting % inhibition at each concentration to the following equation: % inhibition=100%/[(EC50/[I])^b+1] where b was Hill's coefficient.
In other aspects the EC50 was equal to or less than 10 μM. In still other aspects the EC50 was equal to or less than 1 μM.
A general note: A replicon is a self-replicating genome or part of one, used to study replication in cells.

In a further experiment the target is T1, HCV polymerase (Hepatitis C virus genotype 1b, UniProt Q9WMX2).
T1 construct: (His)6 (C); made in house; host or cells: XL-1 cells (E. coli, by own knowledge)
Description: Polymerase assay of Biological Example 1 (IC50 values of Table 3). It is filed as biochemical. Particulars: IC50 values of Table 3, polymerase assay of Biological Example 1; read-out: NS5B-enzyme3. From the text: A number of assays have been published to assess these activities. A general method that assesses the gross increase of HCV virus in culture was disclosed in U.S. Pat. No. 5,738,985 to Miles et al. In vitro assays have been reported in Ferrari et al. Jnl. of Vir., 73:1649-1654, 1999; Ishii et al., Hepatology, 29:1227-1235, 1999; Lohmann et al., Jnl of Bio. Chem., 274:10807-10815, 1999; and Yamashita et al., Jnl. of Bio. Chem., 273:15479-15486, 1998.
WO 97/12033, filed on Sep. 27, 1996, by Emory University, listing C. Hagedorn and A. Reinoldus as inventors, which claims priority to U.S. Provisional Patent Application Ser. No. 60/004,383, filed on September 1995, described an HCV polymerase assay that can be used to evaluate the activity of the of the compounds described herein. Another HCV polymerase assay has been reported by Bartholomeusz, et al., Hepatitis C Virus (HCV) RNA polymerase assay using cloned HCV non-structural proteins; Antiviral Therapy 1996:1 (Supp 4) 18-24.

[2] abbreviates: ET cells, luciferase activity 48 hours after compound.

Where only a bound is given, the exact number is not on record here.

Regarding `O=C(O)c1sc(-c2ccccc2)cc1N1C(=O)CN(S(=O)(=O)c2ccc(OC(F)(F)F)cc2)CC1C1CCCCC1` (stereo not drawn) [Compound 53], the IC50 in experiment [1] (between 100 nM and 5.0 uM) was 100 to 5000 nM; at HCV polymerase, 24 nM. As to `Cc1ccc(-c2cc(N3C(=O)CN(S(=O)(=O)c4ccc(N5CCCC5)nc4)C[C@H]3C3CCCCC3)c(C(=O)O)s2)cc1` [Compound 272, 3-[(R)-2-Cyclohexyl-6-oxo-4-(6-pyrrolidin-1-yl-pyridine-3-sulfonyl)-piperazin-1-yl]-5-p-tolyl-thiophene-2-carboxylic acid], the values for the IC50 (in experiment [1] (setting [2]); on HCV polymerase) were ≤ 100 nM and 1 nM, respectively. `O=C(O)c1sc(-c2ccccc2)cc1N1C(=O)CN(CCc2ccccc2)C[C@H]1C1CCCCC1` [Compound 268, 3-((R)-2-Cyclohexyl-6-oxo-4-phenethyl-piperazin-1-yl)-5-phenyl-thiophene-2-carboxylic acid]: the IC50 at HCV polymerase stood at 620 nM. Consider `CN1CCN(c2ccc(-c3ccc(S(=O)(=O)N4CC(=O)N(c5cc(-c6ccccc6)sc5C(=O)O)[C@H](C5CCCCC5)C4)cn3)cn2)CC1` [Compound 224, 3-{(R)-2-Cyclohexyl-4-[6′-(4-methyl-piperazin-1-yl)-[2,3′]bipyridinyl-5-sulfonyl]-6-oxo-piperazin-1-yl}-5-phenyl-thiophene-2-carboxylic acid], for which the IC50 in experiment [1] (setting [2]) was ≤ 100 nM. On the same count and under the same terms, the same measure for `CC1(C)CCN(c2ccc(S(=O)(=O)N3CC(=O)N(c4cc(-c5ccccc5)sc4C(=O)O)[C@H](C4CCCCC4)C3)cn2)C1` [Compound 219, 3-{(R)-2-Cyclohexyl-4-[6-(3,3-dimethyl-pyrrolidin-1-yl)-pyridine-3-sulfonyl]-6-oxo-piperazin-1-yl}-5-phenyl-thiophene-2-carboxylic acid]: ≤ 100 nM. In the case of `O=C(O)c1sc(-c2ccccc2)cc1N1C(=O)CN(Cc2cccc(-n3cccc3)c2)C[C@H]1C1CCCCC1` [Compound 261, 3-[(R)-2-Cyclohexyl-6-oxo-4-(3-pyrrol-1-yl-benzyl)-piperazin-1-yl]-5-phenyl-thiophene-2-carboxylic acid], the IC50 on HCV polymerase was found to be 199 nM. As to `CN(C)c1ccc(CN2CC(=O)N(c3cc(-c4ccccc4)sc3C(=O)O)[C@H](C3CCCCC3)C2)cc1` [Compound 270, 3-[(R)-2-Cyclohexyl-4-(4-dimethylamino-benzyl)-6-oxo-piperazin-1-yl]-5-phenyl-thiophene-2-carboxylic acid], the IC50 at HCV polymerase stood at 19 nM. The same measure, in the same setting: with `Cc1cccc(C)c1CN1CC(=O)N(c2cc(-c3ccccc3)sc2C(=O)O)[C@H](C2CCCCC2)C1` [Compound 264, 3-[(R)-2-Cyclohexyl-4-(2,6-dimethyl-benzyl)-6-oxo-piperazin-1-yl]-5-phenyl-thiophene-2-carboxylic acid] the figure was 538 nM. `O=C(O)c1sc(-c2ccccc2)cc1N1C(=O)CN(S(=O)(=O)c2ccc(-c3ccncc3)nc2)C[C@H]1C1CCCCC1` [Compound 207] yielded an IC50 in experiment [1] (between 100 nM and 5.0 uM) of 100 to 5000 nM.

For `O=C(O)c1sc(-c2ccc(F)cc2)cc1N1C(=O)CN(S(=O)(=O)c2ccc(N3CCCCC3)nc2)C[C@H]1C1CCCCC1` [Compound 235, 3-[(R)-2-Cyclohexyl-6-oxo-4-(3,4,5,6-tetrahydro-2H-[1,2′]bipyridinyl-5′-sulfonyl)-piperazin-1-yl]-5-(4-fluoro-phenyl)-thiophene-2-carboxylic acid], the IC50 in experiment [1] (setting [2]) was ≤ 100 nM. In experiment [1] (between 100 nM and 5.0 uM), `O=C(O)c1sc(-c2ccccc2)cc1N1C(=O)CC[C@H]1C1CCCCC1` [Compound 6, 3-((S)-2-Cyclohexyl-5-oxo-pyrrolidin-1-yl)-5-phenyl-thiophene-2-carboxylic acid] yielded an IC50 of 100 to 5000 nM.

For the compound `O=C(O)c1sc(-c2ccccc2)cc1N1C(=O)CN(Cc2cccc(F)c2N2CCOCC2)C[C@H]1C1CCCCC1` [Compound 266, 3-[(R)-2-Cyclohexyl-4-(3-fluoro-2-morpholin-4-yl-benzyl)-6-oxo-piperazin-1-yl]-5-phenyl-thiophene-2-carboxylic acid], the IC50 at HCV polymerase is 142 nM. Still for that read-out and setting: the same measure for `O=C(O)c1sc(-c2ccccc2)cc1N1C(=O)CN(CC2CCCCC2)C[C@H]1C1CCCCC1` [Compound 265, 3-((R)-2-Cyclohexyl-4-cyclohexylmethyl-6-oxo-piperazin-1-yl)-5-phenyl-thiophene-2-carboxylic acid]: 601 nM. Still for that read-out and setting: the same measure for “3-[(2S,5R)-5-Cyclohexyl-2-(2,3-dihydroxy-propyl)-2-methyl-3-oxo-morpholin-4-yl]-5-(3,3-dimethyl-but-1-ynyl)-thiophene-2-carboxylic acid [Compound 326]”: 882 nM.

Take `C[C@@H]1CCCN1c1ccc(S(=O)(=O)N2CC(=O)N(c3cc(-c4ccc(Cl)cc4)sc3C(=O)O)[C@H](C3CCCCC3)C2)cn1` [Compound 201, 5-(4-Chloro-phenyl)-3-{(R)-2-cyc!ohexyl-4-[6-((R)-2-methyl-pyrrolidin-1-yl)-pyridine-3-sulfonyl]-6-oxo-piperazin-1-yl}-thiophene-2-carboxylic acid]: the IC50 in experiment [1] (setting [2]) is ≤ 100 nM.

As to `CC(C)(C)OC(=O)N1CC(=O)N(c2cc(-c3ccccc3)sc2C(=O)O)[C@H](C2CCCCC2)C1` [Compound 14, (R)-4-(2-Carboxy-5-phenyl-thiophen-3-yl)-3-cyclohexyl-5-oxo-piperazine-1-carboxylic acid tert-butyl ester], at HCV polymerase, the IC50 amounted to 3650 nM.

With `Cc1ccccc1CN1CC(=O)N(c2cc(-c3ccccc3)sc2C(=O)O)[C@H](C2CCCCC2)C1` [Compound 269, 3-[(R)-2-Cyclohexyl-4-(2-methyl-benzyl)-6-oxo-piperazin-1-yl]-5-phenyl-thiophene-2-carboxylic acid], the IC50 at HCV polymerase turned out to be 330 nM. On the same count and under the same terms, the same measure for `CC(C)(C)C#Cc1cc(N2C(=O)C(CCCS(C)(=O)=O)OC[C@H]2C2CCCCC2)c(C(=O)O)s1` (stereo partly drawn) [Compound 306, 3-[(R)-5-Cyclohexyl-2-(3-methanesulfonyl-propyl)-3-oxo-morpholin-4-yl]-5-(3,3-dimethyl-but-1-ynyl)-thiophene-2-carboxylic acid]: 5.3 nM. Same read-out and setting: with `Cc1cccc(CN2CC(=O)N(c3cc(-c4ccccc4)sc3C(=O)O)[C@H](C3CCCCC3)C2)c1` [Compound 263, 3-[(R)-2-Cyclohexyl-4-(3-methyl-benzyl)-6-oxo-piperazin-1-yl]-5-phenyl-thiophene-2-carboxylic acid] the figure was 108 nM. For `O=C(O)c1sc(-c2ccc(F)cc2)cc1N1C(=O)CN(S(=O)(=O)c2ccc(N3CC4CC3CO4)nc2)C[C@H]1C1CCCCC1` (stereo partly drawn) [Compound 228, 3-{(R)-2-Cyclohexyl-4-[6-(2-oxa-5-aza-bicyclo[2.2.1]hept-5-yl)-pyridine-3-sulfonyl]-6-oxo-piperazin-1-yl}-5-(4-fluoro-phenyl)-thiophene-2-carboxylic acid], the IC50 in experiment [1] (setting [2]) was ≤ 100 nM. Still for that read-out and setting: with `Cc1oncc1S(=O)(=O)N1CC(=O)N(c2cc(C#CC(C)(C)C)sc2C(=O)O)[C@H](C2CCCCC2)C1` [Compound 240, 3-[(R)-2-Cyclohexyl-4-(5-methyl-isoxazole-4-sulfonyl)-6-oxo-piperazin-1-yl]-5-(3,3-dimethyl-but-1-ynyl)-thiophene-2-carboxylic acid] the figure was ≤ 100 nM. On the same count and under the same terms, the same measure for `CC1CCN(c2ccc(S(=O)(=O)N3CC(=O)N(c4cc(-c5ccccc5)sc4C(=O)O)C(C4CCCCC4)C3)cn2)CC1` (stereo not drawn) [Compound 96, 3-[2-Cyclohexyl-4-(4-methyl-3,4,5,6-tetrahydro-2H-[1,2′]bipyridinyl-5′-sulfonyl)-6-oxo-piperazin-1-yl]-5-phenyl-thiophene-2-carboxylic acid]: ≤ 100 nM.
